# Test results taken from US20170056559A1, “Active Agent-Particle Combination Supporting Bone Regeneration” (ECOLE POLYTECHNIQUE FEDERALE DE LAUSANNE (EPFL), priority 2014, published 2017).
# How the values were obtained:
# [1] = test system: RAW 264.7 murine macrophages; assay: Cell proliferation assay with RAW 264.7 macrophages (CellTiter 96 AQueous One Solution); type: cell-based; details: Zoledronate concentrations from 0.16 to 40 μM
# Procedure: An aqueous Zoledronate solution with a concentration of 2 mg/ml was prepared and sterile filtered. The drug solution was diluted with CCM to a final concentration of 80 μM of Zoledronate. A further dilution with CCM gave Zoledronate supplemented medium (Zol-CCM) with concentrations of 80 μM, 40 μM, 20 μM, 10 μM, 5 μM, 2.5 μM and 1.25 μM. The dilution procedure was repeated with an aqueous dispersion containing 2 mg/ml Zoledronate and 20 mg/ml nHA (nHA-Zol-CCM). The macrophages were seeded with a density of 2500 cell per well in 96-well plates (Microtest™ 96, Becton Dickinson Labware, NJ, USA) and incubated with 100 μl CCM at standard incubation conditions (37° C., 5% CO2). After 24 h of incubation, 100 μl of CCM, Zol-CCM or nHA-Zol-CCM were added to the cells, the final Zoledronate concentrations in the CCM were therefore 40 μM, 20 μM, 10 μM, 5 μM, 2.5 μM, 1.25 μM and 0.625 μM. A cell proliferation assay (CellTiter 96® AQueous One Solution, Promega, Wis., USA) was performed after 24, 48 and 72 hours of cell exposure to the modified CCM. The absorbance was measured with a plate reader (Wallac 1420 Victor 2, Perkin Elmer, Waltham, Mass., USA). Background plates with only the modified media were measured at all time points to avoid a bias due to the nHA particles in the dispersions.
# [2] = test system: rat femoral model of postmenopausal osteoporosis; assay: In vivo microCT static and dynamic histomorphometry around femoral screws in ovariectomized rats
# Procedure: The in vivo study in a rat femoral model of postmenopausal osteoporosis was performed following a well-established protocol. All animal procedures were approved by the local animal care and use committee (license no. 2508.1, EXPANIM, SCAV, Epalinges, Switzerland).
# Eight virgin female Wistar rats (Janvier Labs, Saint-Berthevin, France) were ovariectomized bilaterally with a dorsal approach at an age of 17 weeks and a weight of 295±18 g to induce an estrogen deficiency related bone loss. The rats were housed 4 per cage under 12 h light to 12 h dark cycles at 22° C. room temperature with 55% humidity. They were fed with a standard rodent diet (KLIBA NAFAG 3436, Provimi Kliba AG, Switzerland) and tab water at libitum. […]
# In vivo microCT scans (Skyscan 1076, Bruker microCT, Kontich, Belgium) of the right femur only were performed one day before OVX and one day before screw implantation in order to confirm the bone loss caused by the estrogen deficiency. […] The image taken for the evaluation of the bone loss and for dynamic histomorphometry were processed and analyzed using the softwares Amira® (FEI Vizualisation Sciences Group, Burlington, USA) and CTan (Bruker microCT, Kontich, Belgium). […] For an analysis of the spatio-temporal effect, the static and dynamic bone parameters were analyzed in 4 layers of 368 μm each around the screw. […]
# peri-implant bone = details: Zoledronate locally delivered from a hyaluronic acid hydrogel; cited from earlier work
structure (smiles),measurement,setting,value
O=P(O)(O)C(O)(Cn1ccnc1)P(=O)(O)O [Zoledronate],cell proliferation,[1],dose-depended proliferation decrease
same,bone resorption/demineralization peak,"[2]; between days 10 and 31, locally delivered",completely inhibited
same,resorption of bone and degradation of the biomaterial,[2]; later during the study,efficiently inhibited the resorption of present and newly formed bone
same,increase of early bone formation rate,peri-implant bone,up to 100%
same,peri-implant bone resorption,peri-implant bone,efficiently inhibiting peri-implant bone resorption
